This is an account of results in patent US20260158018A1, “PERFUSATE CONTAINING NICOTINAMIDE FOR INTRAOCULAR SURGERY, METHOD OF PREPARATION AND USE THEREOF” (EYE INSTITUTE OF SHANDONG FIRST MEDICAL UNIVERSITY …, priority 2023, published 2026).

The structures appear in SMILES notation.

One data set has as its system rabbit CECs. Kind of data set: Rabbit lens phacoemulsification model with NAM-containing perfusate. The data set is classed as in vivo, New Zealand white rabbits. To be noted: for corneal transparency / edema: 2 days after surgery; for corneal transparency / edema / recovery of corneal thickness / protective effect on CECs in phacoemulsification: NAM versus Gln in perfusate; for corneal transparency / edema / recovery of corneal thickness: FIG. 7; for protective effect on CECs in phacoemulsification: conclusion. How it is done:
Animals: New Zealand white rabbits (age, 1.5 years; weight, 5-7 kg) were purchased from Jinan Xilingjiao Biological Co., Ltd. New Zealand white rabbits were kept in a pathogen-free environment in the animal house of the Eye Institute of Shandong First Medical University.
Animal model: the pupils were dilated three times with 0.5% compound tropicamide eye drops. Sedation was performed first, and the rabbits were anesthetized according to 20 mg/kg intramuscular injection of xylazine hydrochloride injection and 3% pentobarbital sodium injection (15 mg/kg) intravenously at the ear margin. The right eye of each rabbit was subjected to phacoemulsification for lens removal using the WHITESTAR Signature® Phacoemulsification System (Signature, AMO, USA). The left eye was used as the normal eye. A 3.0-mm clear corneal tunnel incision was made at the position of 11 to 12 o'clock, and continuous curvilinear capsulorhexis was performed in the center of the anterior capsular membrane of the lens, with a torn capsule diameter of approximately 5.0 mm. Phacoemulsification was then performed to suction out the lens contents, including the nucleus of the lens and the residual lens cortex, with the setting of ultrasonication energy of 30-50% and the ultrasonication time of 4-6 min. At the end of the procedure, the New Zealand white rabbits were administered with tobramycin and dexamethasone eye ointment in the conjunctival sac.
Perfusate: balanced salt solution containing 1 mM NAM (refers to compound electrolyte intraocular irrigating solution, Shike®, Shenyang Xingqi Pharmaceutical Co., Ltd.): NAM was added to the balanced salt solution until the concentration of NAM in the perfusate was 1 mM; balanced salt solution containing 2.5 mM NAM: NAM was added to the balanced salt solution until the concentration of NAM in the perfusate was 2.5 mM; balanced salt solution containing 5 mM NAM: NAM was added to the balanced salt solution until the concentration of NAM in the perfusate was 5 mM; balanced salt solution alone as control group: an equal amount of PBS was added to the balanced salt solution.
Immunofluorescence staining: immunofluorescence detection of the expression of functional proteins ZO1 and ATP1A1.
Alizarin Red Staining: gross corneas of New Zealand rabbits were collected and fixed in sterile saline. The cornea was flattened by cutting it into four flaps using ophthalmic microscopic scissors. The corneas were stained with alizarin red staining solution for 2 min, followed by washing the corneas at least three times with sterile saline. Cover slips were put on, changes in the CECs of New Zealand rabbits were observed under a microscope, image acquisition was performed, and all experiments were repeated at least 3 times. Endothelial cell density, coefficient of variation, and hexagonal ratio were determined using alizarin red-stained images of New Zealand rabbit corneas. By using an endothelial microscope by 2 uninformed observers, cell density was normalized to the area of each image in square millimeters. For each image, an area containing at least 60 cells was selected.
Slit lamp photography: changes in corneal transparency in New Zealand rabbits were observed and recorded using a slit lamp.
Corneal thickness test: corneal thickness was analyzed and measured using optical coherence tomography (OCT) to measure central corneal thickness, with no less than three New Zealand rabbits measured at each time point.
Phacoemulsification was performed on New Zealand white rabbits, where NAM-containing intraocular perfusate was used for irrigation, and perfusate of the balanced salt solution alone was used as a control.

For the next data set, the system named is mouse CECs. The conditions noted are these: mice treated with high IOP, reported in the literature; cited from earlier work.
A further data set concerns Human CECs line B4G12. In words: Cellular assay: B4G12 cell damage induced by phacoemulsification in vitro. The class given is cell-based. The conditions noted are these: 1 mM, 2.5 mM and 5 mM NAM; 1 hour and 24 hours after phacoemulsification; sonication 20 seconds, energy 30%; FIG. 8. How it is done:
Preparation for cell culture in vitro: Human CECs line B4G12 was selected for culture, original medium was discarded, 3 mL of PBS buffer was added, 6.0 cm cell culture dish was shaken gently, rinsed twice, and PBS buffer was discarded. 1.0 mL of trypsin was added to completely cover the bottom of the dish, and the dish was placed in the incubator for 5 min. The dish gently shaken, tapped, and observed with a microscope. The adherent cells became suspended round cells, then 1.5 mL of complete medium [each 50 mL of human corneal endothelial cell basal medium (H-SFM, Creative Bioarray, New York, USA) supplemented with 1.5 mL of FBS and 0.5 mL of penicillin-streptomycin solution] was added to the flask on the laminar flow cabinet, and trypsin digestion of cells was stopped. The cells on all parts of the bottom of the flask were gently pipetted using the tip of the pipettor so that the cells became fully in suspension. The cell suspension was transferred to a 15 mL centrifuge tube and subjected to centrifugation at 1200 rpm for 5 min. After the centrifugation, the supernatant was discarded, 3 mL of complete medium was added to the centrifuge tube, and a resulting mixture was gently pipetted to eveness. The cells were allowed to resuspend sufficiently, then inoculated into 48-well cell culture plates at a cell density of 1×10^5 and incubated for 24 hours for subsequent experiments. […]

On to `NC(=O)CC[C@H](N)C(=O)O` [Gln, glutamine], for which, in the data set on rabbit CECs, the “corneal transparency / edema” value is “still edematous”, the “recovery of corneal thickness” value is listed as “recovered more slowly” and the “protective effect on CECs in phacoemulsification” value was “poor protective effect”. The “protective effect on CECs during high IOP treatment” value in the data set with mouse CECs was “protective effect on CECs in mice treated with high IOP”.

For `NC(=O)c1cccnc1` [NAM, nicotinamide], the “apoptosis and cell survival of B4G12 cells after phacoemulsification” value in the data set on Human CECs line B4G12 was “could inhibit apoptosis induced by phacoemulsification and promote cell survival in a concentration-dependent manner”. Besides, in the data set with rabbit CECs, the “corneal transparency / edema” value is on record as “transparent”, the “recovery of corneal thickness” value is “recovered quickly” and the “protective effect on CECs in phacoemulsification” value is listed as “has a protective effect on CECs”. The “intraocular pressure (IOP) after phacoemulsification” value in the data set with rabbit CECs (within 7 days after surgery, versus control group, FIG. 4) is reported as “did not cause a pathological increase in IOP within 7 days after surgery”.
